Experimental data published in ChEMBL document CHEMBL5726158, “5H-pyrido[3,2-B]indole compounds as anticancer agents” (2019).

Target: Bromodomain-containing protein 4 (Homo sapiens, UniProt O60885)
Test: Time Resolved Fluorescence Resonance Energy Transfer (TR-FRET) Assay: The binding of compounds to bromodomain BRD4 (44-168), BRD4 (333-460), and BRD4 (1-477 or 44-460) was assessed using a time resolved fluorescent resonance energy transfer binding assay (1), that measures the binding of a fluorescently labeled probe molecule to the bromodomain protein. The bromodomain protein, fluorescent probe molecule (either a biotinylated histone peptide or a fluorescently labeled small molecule), and dose-responsed test compound are incubated together to reach thermodynamic equilibrium. In the absence of a test compound, the bromodomain and small molecule are bound, resulting in a high fluorescent signal. In the presence of a sufficient concentration of inhibitor, this interaction is disrupted resulting in a lost of fluorescent resonance energy transfer.All assay components were dissolved in buffer composition 20 mM Hepes pH 7.5, 150 mM NaCl, 5 mM DTT, 0.005% Tween 20, and 100 ug/ml BSA for BRD4 (1-477 and 44-460). The final concentrations of the bromodomain proteins are 1.6 nM BRD4(44-168), 1 nM BRD4(333-460), and 1 nM BRD4(1-477 or 44-460), and the fluorescent probe molecule is 100 nM, 50 nM, and 7.5 nM respectively. All proteins were biotinylated. […]

SMILES: Cc1nnn(C)c1-c1cnc2c3cc(C4CCN(C(=O)OC(C)(C)C)CC4)ccc3n([C@H](c3ccccc3)C3CCOCC3)c2c1
- IC50: < 5 nM
